Source: ChEMBL document CHEMBL1122789, “Synthesis and biological activity of structural analogues of the anticancer benzophenanthridine alkaloid nitidine chloride” (1984)

What was measured:
Type in all cases: functional, Mus musculus
B16 = assay: Evaluated for anticancer activity in survival tumor system B16 melanocarcinoma at a dose of 50 mg/kg, value was reported as weight difference
[1] = Evaluated for anticancer activity in tumor inhibition system colon 38 tumor at dose 400 mg/kg
L1210 = assay: Evaluated for anticancer activity in survival tumor system L1210 lymphoid leukemia at a dose of 100 mg/kg, value was reported as weight difference

`COc1cc2c[n+](C)c3c(c2cc1OC)Cc1cc2c(cc1-3)OCO2.[Cl-]` gave a Weight change (B16) of -4.9, a T/C [1] of 85% and a Weight change (L1210) of -5.8.
